The source of these data is publication PMC5635000, “Structural and mechanistic characterization of an archaeal-like chaperonin from a thermophilic bacterium” (Nature Communications, 2017).

Experiment [1] concerns the target T1, Ch-CPN (Carboxydothermus hydrogenoformans, UniProt Q3AF10).
T1 construct: gene CHY_0413; full-length wild type, 521 residues; recombinant from E. coli BL21(DE3), no tag mentioned; homo-hexadecamer of two octameric rings; residues 10-502 (5X9V) and 9-502 (5X9U) modelled
T1 sequence (Q3AF10 1-521): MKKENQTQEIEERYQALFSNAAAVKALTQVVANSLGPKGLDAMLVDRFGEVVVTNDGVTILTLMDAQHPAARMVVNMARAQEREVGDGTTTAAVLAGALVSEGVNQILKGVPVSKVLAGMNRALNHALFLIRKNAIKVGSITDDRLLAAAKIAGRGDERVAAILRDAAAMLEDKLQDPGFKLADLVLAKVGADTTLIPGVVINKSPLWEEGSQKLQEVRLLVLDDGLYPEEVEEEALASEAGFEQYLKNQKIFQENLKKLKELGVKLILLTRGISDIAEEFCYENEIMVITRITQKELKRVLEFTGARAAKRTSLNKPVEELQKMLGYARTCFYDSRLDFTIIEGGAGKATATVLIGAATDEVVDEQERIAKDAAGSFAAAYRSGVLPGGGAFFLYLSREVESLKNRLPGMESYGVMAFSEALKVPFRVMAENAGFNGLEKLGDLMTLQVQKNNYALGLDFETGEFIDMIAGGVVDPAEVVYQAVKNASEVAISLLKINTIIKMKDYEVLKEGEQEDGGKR
The experiment in a line: X-ray crystal structure, […] Å. Format: binding. The note with it: open conformation; nucleotide site of equatorial domain; no Mg2+ seen; 3 mM ADP, pH 7.0.

For experiment [2], the target named is Group III chaperonin from Carboxydothermus hydrogenoformans (Ch-CPN), wild type (Carboxydothermus hydrogenoformans) (UniProt Q3AF10). The experiment in a line: crystal structure; Ch-CPN with 3 mM AMPPNP, closed conformation; batch crystallisation at 22 °C, 20 mM MgCl2, 100 mM HEPES:NaOH pH 7.5; 3.0 Å.
The target of experiment [3] is T1, Ch-CPN. The experiment in a line: X-ray crystal structure, […] Å. Format: binding. The note with it: closed conformation; nucleotide site of equatorial domain; Mg2+; 3 mM AMPPNP, pH 7.5.
The target in experiment [4] is Ch-CPN L439A pivot joint mutant (Carboxydothermus hydrogenoformans) (UniProt Q3AF10). The experiment in a line: not stated; L439A subunits purified as hexadecameric chaperonins (Supplementary Fig. 12b).

For the molecule `Nc1ncnc2c1ncn2[C@@H]1O[C@H](COP(=O)(O)OP(=O)(O)O)[C@@H](O)[C@H]1O` [ADP], the “X-ray crystal structure, 4.0 Å” value on Ch-CPN [1] was “The crystal structure of the ADP-bound Ch-CPN shows its fully open conformation”.

Broadly, the stoichiometry N is the number of molecules, sites or subunits per partner or assembly. Consider “Group III chaperonin from Carboxydothermus hydrogenoformans (Ch-CPN), wild type (from UniProt Q3AF10 1-521) (natural protein)”, for which the stoichiometry N in experiment [2] came to 16.

Regarding `Nc1ncnc2c1ncn2[C@@H]1O[C@H](COP(=O)(O)OP(=O)(O)NP(=O)(O)O)[C@@H](O)[C@H]1O` [AMPPNP], the “X-ray crystal structure, 3.0 Å” value at Ch-CPN [3] is given as “crystal structure of Ch-CPN in complex with AMPPNP, an ATP analog, revealed its closed conformation”.

“Ch-CPN L439A pivot joint mutant (from UniProt Q3AF10 1-521) (natural protein)” showed a stoichiometry N in experiment [4] of 16.
